Measured values reported in paper PMC5635289, “Differential Effects of Angelicin Analogues on NF-κB Activity and IL-8 Gene Expression in Cystic Fibrosis IB3-1 Cells” (Mediators of Inflammation, 2017).

Legend:
IB3-1 cells = assay: Cell proliferation assay on IB3-1 cells; type: cell-based; conditions: Homo sapiens, cell number/ml after 48 h of treatment
Experimental: Monolayers of 60% confluent IB3-1 cells were seeded in 24- or 12-well plates in LHC-8 medium in the presence of 5% FBS. After 24 h, TMA derivatives were added at serial dilutions and incubated for further 2-3 days. The effects of compounds (TMA derivatives) on the cell proliferation were analyzed as elsewhere described. A first analysis was performed with serial dilutions to obtain 50 μM, 200 μM, and 800 μM solutions. In order to determine IC50 values, the following concentrations were used 12.5, 25, 50, 100, 200, and 800 μM. In order to prepare the cells for counting, they were washed with PBS 1X and detached with trypsin/EDTA. Cells were suspended in physiological solution and counted with a Z2 Coulter Counter (Coulter Electronics, Hialeah, FL, USA). The cell number/ml was determined as IC50 after 2 days of culture, when untreated cells are in log phase of cell growth.
In order to obtain preliminary information on the biological properties of TMA derivatives, their effects on cell growth were examined on IB3-1 cell line, excellent biological model to study new potential anti-inflammatory molecules. The use of this cell line to study the expression of proinflammatory molecules under a variety of stimuli is well established. Monolayers of 60% confluent IB3-1 cells were seeded in 12-well plate in LHC-8 medium with 5% FBS. After 24 h, compounds were added at different concentrations and the cell number/ml was determined after further 48 h of culture.

NF-κB p50 = target: T1, NF-κB p50 (Homo sapiens, UniProt P19838); assay: EMSA, inhibition of NF-κB/DNA interactions; type: binding; conditions: NF-κB p50 and 32P-labeled NF-κB oligonucleotide, MIC = minimal inhibitory concentration, 12.5 μM was the lowest concentration used
T1 construct: This assay was performed using purified NF-κB p50; purchased Promega
T1 sequence (P19838 1-433 limits assumed): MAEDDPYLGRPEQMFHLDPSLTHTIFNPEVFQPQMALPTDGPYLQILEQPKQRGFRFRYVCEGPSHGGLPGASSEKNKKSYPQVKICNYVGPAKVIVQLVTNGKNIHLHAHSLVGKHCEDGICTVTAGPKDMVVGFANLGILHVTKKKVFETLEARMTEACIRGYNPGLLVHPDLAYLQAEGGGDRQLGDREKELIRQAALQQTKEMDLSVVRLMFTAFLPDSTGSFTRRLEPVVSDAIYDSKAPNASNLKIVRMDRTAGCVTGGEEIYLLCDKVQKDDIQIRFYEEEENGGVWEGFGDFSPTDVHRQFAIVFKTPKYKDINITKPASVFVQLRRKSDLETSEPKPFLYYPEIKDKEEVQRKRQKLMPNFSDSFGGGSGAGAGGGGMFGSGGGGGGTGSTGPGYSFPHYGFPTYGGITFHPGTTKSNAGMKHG
Experimental: Electrophoretic mobility shift assays were performed using double-stranded ^32P-labeled oligonucleotides as target DNA. Binding reactions were set up as previously described in binding buffer (10% glycerol, 0.05% NP-40, 10 mM Tris-HCl pH 7.5, 50 mM NaCl, 0.5 mM DTT, and 10 mM MgCl2), in the presence of 0.1 μl/20 μl of NF-κB p50 (50 gsu) (Promega, Madison, WI, USA) and 0.25 ng of labeled oligonucleotide, in a total volume of 20 μl. After 30 min binding at room temperature, samples were electrophoresed at constant voltage (200 V for 30 min) through a low ionic strength (0.25 TBE buffer) (1 TBE/40.089 M Tris-borate, 0.002 M EDTA) on 6% polyacrylamide gels until the tracking dye (bromophenol blue) reached the bottom of a 16 cm slab. Gels were dried and exposed for autoradiography with intensifying screens at […]. In these experiments, DNA/protein complexes migrate through the gel with slower efficiency. In studies on the inhibitors of protein/DNA interactions, addition of the reagents was as follows: (i) nuclear factors, (ii) active principles, (iii) binding buffer, and (iv) labeled oligonucleotides mimicking the binding sites for TF to be modulated. The nucleotide sequence of double-stranded target DNA utilized in these experiments was 5′-CGC TGG GGA CTT TCC ACG G-3′ (sense strand, NF-κB). The synthetic oligonucleotides utilized in this study were purchased from Sigma Genosys (Sigma Genosys, Cambs, UK). To calculate the effective concentrations, three different autoradiograms obtained from different time exposures were scanned and compared to control EMSA performed without addition of angelicin analogues (two independent experiments were performed).
The effects of TMA derivatives on NF-κB- (nuclear factor-kappaB-) mediated induction of proinflammatory genes was verified first in vitro by electrophoretic mobility shift assay (EMSA) with the aim to verify and quantify the possible inhibition of NF-κB/DNA interactions. This assay was performed using purified NF-κB p50 and ^32P-labeled target NF-κB double-stranded oligonucleotide mimicking the NF-κB consensus sequence present within the IL-8 gene promoter.

IL-8 = assay: Bioplex analysis of IL-8 release in TNF-α-induced IB3-1 cells; type: cell-based, human; conditions: 1 μM, compared to untreated TNF-α-stimulated IB3-1 cells, 5 h pretreatment then TNF-α 24 h
Experimental: (§1) The Bioplex cytokine assay is designed for the multiplexed quantitative measurement of multiple cytokines in a single well using as little as 50 μl of sample. In our experiments, the premixed multiplex beads (27-plex) of the Bioplex human cytokines were used. 50 μl of cytokine standards or samples (supernatants recovered from treated cells and diluted to 2 μg/μl) were incubated with 50 μl of anticytokine conjugated beads in 96-well filter plates for 30 min at room temperature with shaking. Plates were washed by vacuum filtration three times with 100 μl of Bioplex wash buffer, 25 μl of diluted detection antibody were added, and plates were incubated for 30 min at room temperature with shaking. After three filter washes, 50 μl of streptavidin-phycoerythrin were added, and the plates were incubated for 10 min at room temperature with shaking. Finally, plates were washed by vacuum filtration three times, beads were suspended in Bioplex assay buffer, and samples were analyzed on a Bio-Rad 96-well plate reader using the Bioplex Suspension Array System and Bioplex Manager software (Bio-Rad Laboratories Inc., Hercules, CA).
(§2) In order to verify the effects on the secretion of IL-8 by IB3-1 cells, Luminex technology was employed to detect and quantify proteins secreted into the medium. […]

[1] = test system: other cytokines, chemokines, and growth factors; assay: Bioplex analysis of other secreted proteins in TNF-α-induced IB3-1 cells; type: cell-based, human; conditions: 1 μM, TNF-α-stimulated IB3-1 cells, all secreted proteins analyzed except IP-10
Experimental: as §1, §2

- Inhibition of NF-κB/DNA complex (MIC) (NF-κB p50): <12.5 (^∗) μM
SMILES: Cc1oc2c(C)cc3c(C)cc(=O)oc3c2c1C [Compound 1]
- IC50 (IB3-1 cells): > 800 µM
- Reduction of IL-8 secretion (IL-8): about 50%
- Variation of other secreted proteins [1]: less than 10%
